Measured values published in patent US10046060B2, “Co-administration of an agent linked to an internalization peptide with an anti-inflammatory” (NoNO Inc., priority 2007, dated 2018).
Ends that are not written are not given here.

Tested on: humans
Assay: Safety, Tolerability and Pharmacokinetic Study in humans: blood histamine
Format: in vivo, human
Details: for Average histamine level of subjects with >10 nmol/L / Maximum histamine level: 3.75 mg/kg
Protocol: We carried out a Safety, Tolerability and Pharmacokinetic Study of Tat-NR2B9c in humans. Subjects were either normal, healthy, non-smoking males or post-menopausal or surgically sterile female subjects with a minimum age of 18 years. The subjects were either administered Tat-NR2B9c, Lot #: 124-134-001B, or were given placebo (Phosphate Buffered Saline), Lot #: 124-134-001A, administered as an intravenous infusion (10±1 minutes). Four subjects were dosed in each of Cohorts 1 to 3, and 10 subjects were dosed in each of Cohorts 4 to 8. All 62 subjects completed the study. Treatment periods for each cohort were as follows: Cohort 1: Sep. 14, 2006; Cohort 2: Sep. 26, 2006; Cohort 3: Oct. 6, 2006; Cohort 4: Oct. 20, 2006; Cohort 5: Nov. 6, 2006; Cohort 6: Dec. 4, 2006; Cohort 7: Dec. 17, 2006; Cohort 8: Feb. 25, 2007.
During the study period, 11 blood samples were collected for pharmacokinetic analysis from each subject at the following timepoints: 0.00 (pre-dose), 0.08 (5 minutes), 0.17 to 0.25 (10 to 15 minutes, precisely at the end of each individual drug infusion), 0.33 (20 minutes), 0.50, 0.75, 1.00, 2.00, 6.00, 12.00, and 24.00 hours post-dose. In addition, 8 blood samples were collected for histamine analysis from each subject at the following timepoints: 0.00 (pre-dose), and at 0.08 (5 minutes), 0.17 (10 minutes), 0.25, 0.50, 1.00, 2.00, and 24.00 hours post-dose.

[1] = 10 minutes after start of administration
[2] = 15 minutes after start of administration

YGRKKRRQRRRKLSSIESDV [Tat-NR2B9c]
20.3 nmol/L: Maximum histamine level [2]
39.8 nmol/L: Maximum histamine level [1]
1: Number of Subjects with Histamine levels >10 nmol/L (NA-1 0.375 mg/kg (n = 8), Screening)
15.3 nmol/L: Average histamine level of subjects with >10 nmol/L [2]
24.3 nmol/L: Average histamine level of subjects with >10 nmol/L [1]
0: Number of Subjects with Histamine levels >10 nmol/L (NA-1 0.02 mg/kg (n = 2), Day 1, 0.00 hr) | Number of Subjects with Histamine levels >10 nmol/L (NA-1 0.02 mg/kg (n = 2), Day 1, 0.08 hr) | Number of Subjects with Histamine levels >10 nmol/L (NA-1 0.02 mg/kg (n = 2), Day 1, 0.17 hr) | Number of Subjects with Histamine levels >10 nmol/L (NA-1 0.02 mg/kg (n = 2), Day 1, 0.25 hr) | Number of Subjects with Histamine levels >10 nmol/L (NA-1 0.02 mg/kg (n = 2), Day 1, 0.50 hr) | Number of Subjects with Histamine levels >10 nmol/L (NA-1 0.02 mg/kg (n = 2), Day 1, 1.00 hr) | Number of Subjects with Histamine levels >10 nmol/L (NA-1 0.02 mg/kg (n = 2), Day 1, 2.00 hr) | Number of Subjects with Histamine levels >10 nmol/L (NA-1 0.02 mg/kg (n = 2), Day 1, 24.00 hr) | Number of Subjects with Histamine levels >10 nmol/L (NA-1 0.02 mg/kg (n = 2), Day 7) | Number of Subjects with Histamine levels >10 nmol/L (NA-1 0.02 mg/kg (n = 2), Day 14) | Number of Subjects with Histamine levels >10 nmol/L (NA-1 0.02 mg/kg (n = 2), Day 28 End-of-study) | Number of Subjects with Histamine levels >10 nmol/L (NA-1 0.02 mg/kg (n = 2), Screening) | Number of Subjects with Histamine levels >10 nmol/L (NA-1 0.08 mg/kg (n = 2), Day 1, 0.00 hr) | Number of Subjects with Histamine levels >10 nmol/L (NA-1 0.08 mg/kg (n = 2), Day 1, 0.08 hr) | Number of Subjects with Histamine levels >10 nmol/L (NA-1 0.08 mg/kg (n = 2), Day 1, 0.17 hr) | Number of Subjects with Histamine levels >10 nmol/L (NA-1 0.08 mg/kg (n = 2), Day 1, 0.25 hr) | Number of Subjects with Histamine levels >10 nmol/L (NA-1 0.08 mg/kg (n = 2), Day 1, 0.50 hr) | Number of Subjects with Histamine levels >10 nmol/L (NA-1 0.08 mg/kg (n = 2), Day 1, 1.00 hr) | Number of Subjects with Histamine levels >10 nmol/L (NA-1 0.08 mg/kg (n = 2), Day 1, 2.00 hr) | Number of Subjects with Histamine levels >10 nmol/L (NA-1 0.08 mg/kg (n = 2), Day 1, 24.00 hr) | Number of Subjects with Histamine levels >10 nmol/L (NA-1 0.08 mg/kg (n = 2), Day 7) | Number of Subjects with Histamine levels >10 nmol/L (NA-1 0.08 mg/kg (n = 2), Day 14) | Number of Subjects with Histamine levels >10 nmol/L (NA-1 0.08 mg/kg (n = 2), Day 28 End-of-study) | Number of Subjects with Histamine levels >10 nmol/L (NA-1 0.08 mg/kg (n = 2), Screening) | Number of Subjects with Histamine levels >10 nmol/L (NA-1 0.20 mg/kg (n = 2), Day 1, 0.00 hr) | Number of Subjects with Histamine levels >10 nmol/L (NA-1 0.20 mg/kg (n = 2), Day 1, 0.08 hr) | Number of Subjects with Histamine levels >10 nmol/L (NA-1 0.20 mg/kg (n = 2), Day 1, 0.17 hr) | Number of Subjects with Histamine levels >10 nmol/L (NA-1 0.20 mg/kg (n = 2), Day 1, 0.25 hr) | Number of Subjects with Histamine levels >10 nmol/L (NA-1 0.20 mg/kg (n = 2), Day 1, 0.50 hr) | Number of Subjects with Histamine levels >10 nmol/L (NA-1 0.20 mg/kg (n = 2), Day 1, 1.00 hr) | Number of Subjects with Histamine levels >10 nmol/L (NA-1 0.20 mg/kg (n = 2), Day 1, 2.00 hr) | Number of Subjects with Histamine levels >10 nmol/L (NA-1 0.20 mg/kg (n = 2), Day 1, 24.00 hr) | Number of Subjects with Histamine levels >10 nmol/L (NA-1 0.20 mg/kg (n = 2), Day 7) | Number of Subjects with Histamine levels >10 nmol/L (NA-1 0.20 mg/kg (n = 2), Day 14) | Number of Subjects with Histamine levels >10 nmol/L (NA-1 0.20 mg/kg (n = 2), Day 28 End-of-study) | Number of Subjects with Histamine levels >10 nmol/L (NA-1 0.20 mg/kg (n = 2), Screening) | Number of Subjects with Histamine levels >10 nmol/L (NA-1 0.375 mg/kg (n = 8), Day 1, 0.00 hr) | Number of Subjects with Histamine levels >10 nmol/L (NA-1 0.375 mg/kg (n = 8), Day 1, 0.08 hr) | Number of Subjects with Histamine levels >10 nmol/L (NA-1 0.375 mg/kg (n = 8), Day 1, 0.17 hr) | Number of Subjects with Histamine levels >10 nmol/L (NA-1 0.375 mg/kg (n = 8), Day 1, 0.25 hr) | Number of Subjects with Histamine levels >10 nmol/L (NA-1 0.375 mg/kg (n = 8), Day 1, 0.50 hr) | Number of Subjects with Histamine levels >10 nmol/L (NA-1 0.375 mg/kg (n = 8), Day 1, 1.00 hr) | Number of Subjects with Histamine levels >10 nmol/L (NA-1 0.375 mg/kg (n = 8), Day 1, 2.00 hr) | Number of Subjects with Histamine levels >10 nmol/L (NA-1 0.375 mg/kg (n = 8), Day 1, 24.00 hr) | Number of Subjects with Histamine levels >10 nmol/L (NA-1 0.375 mg/kg (n = 8), Day 7) | Number of Subjects with Histamine levels >10 nmol/L (NA-1 0.375 mg/kg (n = 8), Day 14) | Number of Subjects with Histamine levels >10 nmol/L (NA-1 0.375 mg/kg (n = 8), Day 28 End-of-study)
